Like-named read-outs stand apart in the source and are kept apart here.
Test: Phase I study CXR1002-001: plasma pharmacokinetics (LC-MS/MS)
Type: in vivo, human
Details: human, plasma, oral, person, plasma, read-out: Concentration; for concentration at 336 h: 336 hr (Day 15); for concentration at 360 h: 360 hr (Day 16); for concentration at 504 h: 504 hr (Day 22); for concentration at 528 h: 528 hr (Day 23); for concentration at 672 h: 672 hr (Day 29); for concentration at 696 h: 696 hr (Day 30); for concentration at 840 h: 840 hr (Day 36); for concentration at 864 h: 864 hr (Day 37); for concentration at 24 h: 24 hr (Day 2); for concentration at 168 h: 168 hr (Day 8)
Source text: PK samples, PD (fasting) samples, blood glucose, and blood triglyceride samples, were taken over a 6-week period.
Dose limiting toxicity (DLT) will be based on the toxicity assessments over the first 3-week period of the repeat dosing schedule. PK samples (single blood sample) were taken on the following basis: • Every 6 weeks during the repeat dosing phase • If dosing is interrupted or stopped, samples will be taken at intervals according to patient convenience • PK sampling for safety evaluation may take place at any time, as clinically indicated
Plasma samples were collected after the single 50 mg dose at the following timepoints: Pre-dose, and then 0.25, 0.5, 0.75, 1, 1.5, 2, 3, 4, 6, 24, 48, and 72 hours after administration and then once weekly at weeks 2, 3, 4, 5, and 6 (days 8, 15, 22, 29, and 36). For patients treated with the weekly repeat dose, plasma samples were collected at the following timepoints: Pre-dose and then 2, 3, 4 and 24 hours after administration for a total of 6 weeks. Thereafter a single sample was collected every 6 weeks for monitoring of exposure during long term treatment. Plasma samples were processed at site and stored at −80° C. prior to batch shipment to the analytical laboratory.

Work on `O=C(O)C(F)(F)C(F)(F)C(F)(F)C(F)(F)C(F)(F)C(F)(F)C(F)(F)F` [CXR1002] yielded a concentration at 192 h (600 mg, Patient 021, 600 mg, 192 hr (Day 9)) of 479 µM, a concentration at 336 h (600 mg, Patient 021, 600 mg) of 412 µM and a concentration at 338 h (600 mg, Patient 021, 600 mg) of 650 µM. It also gave a concentration at 339 h (600 mg, Patient 021, 600 mg) of 653 µM, a concentration at 340 h (600 mg, Patient 021, 600 mg) of 633 µM and a concentration at 360 h (600 mg, Patient 021, 600 mg) of 604 µM. It also gave a concentration at 504 h (600 mg, Patient 021, 600 mg) of 605 µM, a concentration at 506 h (600 mg, Patient 021, 600 mg) of 734 µM and a concentration at 507 h (600 mg, Patient 021, 600 mg) of 654 µM. It also gave a concentration at 508 h (600 mg, Patient 021, 600 mg) of 722 µM, a concentration at 528 h (600 mg, Patient 021, 600 mg) of 678 µM and a concentration at 672 h (600 mg, Patient 021, 600 mg) of 613 µM. For the same molecule, the concentration at 674 h (600 mg, Patient 021, 600 mg) was 681 µM, the concentration at 675 h (600 mg, Patient 021, 600 mg) was 847 µM and the concentration at 676 h (600 mg, Patient 021, 600 mg) was 845 µM. For the same molecule, the concentration at 696 h (600 mg, Patient 021, 600 mg) was 799 µM, the concentration at 840 h (600 mg, Patient 021, 600 mg) was 779 µM and the concentration at 842 h (600 mg, Patient 021, 600 mg) was 968 µM. The concentration at 843 h (600 mg, Patient 021, 600 mg) was 928 µM, the concentration at 844 h (600 mg, Patient 021, 600 mg) was 981 µM and the concentration at 864 h (600 mg, Patient 021, 600 mg) was 995 µM. For the same molecule, the concentration at 2 h (600 mg, Patient 022, 600 mg) was 193 µM, the concentration at 3 h (600 mg, Patient 022, 600 mg) was 196 µM and the concentration at 4 h (600 mg, Patient 022, 600 mg) was 199 µM. For the same molecule, the concentration at 24 h (600 mg, Patient 022, 600 mg) was 157 µM, the concentration at 168 h (600 mg, Patient 022, 600 mg) was 143 µM and the concentration at 170 h (600 mg, Patient 022, 600 mg) was 310 µM. The concentration at 171 h (600 mg, Patient 022, 600 mg) was 270 µM, the concentration at 172 h (600 mg, Patient 022, 600 mg) was 276 µM and the concentration at 192 h (600 mg, Patient 022, 600 mg, 192 hr (day 9)) was 298 µM. For the same molecule, the concentration at 336 h (600 mg, Patient 022, 600 mg) was 289 µM, the concentration at 338 h (600 mg, Patient 022, 600 mg) was 433 µM and the concentration at 339 h (600 mg, Patient 022, 600 mg) was 433 µM. The concentration at 340 h (600 mg, Patient 022, 600 mg) was 405 µM, the concentration at 360 h (600 mg, Patient 022, 600 mg) was 427 µM and the concentration at 504 h (600 mg, Patient 022, 600 mg) was 426 µM. It also gave a concentration at 506 h (600 mg, Patient 022, 600 mg) of 441 µM, a concentration at 507 h (600 mg, Patient 022, 600 mg) of 562 µM and a concentration at 508 h (600 mg, Patient 022, 600 mg) of 519 µM. The concentration at 528 h (600 mg, Patient 022, 600 mg) was 596 µM, the concentration at 2 h (600 mg, Patient 023, 600 mg) was 208 µM and the concentration at 3 h (600 mg, Patient 023, 600 mg) was 233 µM. The concentration at 4 h (600 mg, Patient 023, 600 mg) was 236 µM, the concentration at 24 h (600 mg, Patient 023, 600 mg) was 221 µM and the concentration at 168 h (600 mg, Patient 023, 600 mg) was 204 µM. The concentration at 170 h (600 mg, Patient 023, 600 mg) was 336 µM, the concentration at 171 h (600 mg, Patient 023, 600 mg) was 337 µM and the concentration at 172 h (600 mg, Patient 023, 600 mg) was 391 µM. It also gave a concentration at 192 h (600 mg, Patient 023, 600 mg, 192 hr (day 9)) of 400 µM, a concentration at 336 h (600 mg, Patient 023, 600 mg) of 432 µM and a concentration at 338 h (600 mg, Patient 023, 600 mg) of 495 µM. It also gave a concentration at 339 h (600 mg, Patient 023, 600 mg) of 613 µM, a concentration at 340 h (600 mg, Patient 023, 600 mg) of 636 µM and a concentration at 360 h (600 mg, Patient 023, 600 mg) of 616 µM. It also gave a concentration at 2 h (600 mg, Patient 024, 600 mg) of 91.6 µM, a concentration at 3 h (600 mg, Patient 024, 600 mg) of 188 µM and a concentration at 4 h (600 mg, Patient 024, 600 mg) of 283 µM. For the same molecule, the concentration at 24 h (600 mg, Patient 024, 600 mg) was 258 µM, the concentration at 168 h (600 mg, Patient 024, 600 mg) was 212 µM and the concentration at 170 h (600 mg, Patient 024, 600 mg) was 436 µM. It also gave a concentration at 171 h (600 mg, Patient 024, 600 mg) of 441 µM, a concentration at 172 h (600 mg, Patient 024, 600 mg) of 439 µM and a concentration at 192 h (600 mg, Patient 024, 600 mg, 192 hr (Day 9)) of 418 µM. For the same molecule, the concentration at 336 h (600 mg, Patient 024, 600 mg) was 488 µM, the concentration at 338 h (600 mg, Patient 024, 600 mg) was 578 µM and the concentration at 339 h (600 mg, Patient 024, 600 mg) was 533 µM. For the same molecule, the concentration at 340 h (600 mg, Patient 024, 600 mg) was 628 µM, the concentration at 360 h (600 mg, Patient 024, 600 mg) was 647 µM and the concentration at 504 h (600 mg, Patient 024, 600 mg) was 691 µM. It also gave a concentration at 506 h (600 mg, Patient 024, 600 mg) of 642 µM, a concentration at 507 h (600 mg, Patient 024, 600 mg) of 706 µM and a concentration at 508 h (600 mg, Patient 024, 600 mg) of 630 µM. It also gave a concentration at 528 h (600 mg, Patient 024, 600 mg) of 859 µM, a concentration at 672 h (600 mg, Patient 024, 600 mg) of 788 µM and a concentration at 674 h (600 mg, Patient 024, 600 mg) of 694 µM. For the same molecule, the concentration at 675 h (600 mg, Patient 024, 600 mg) was 779 µM, the concentration at 676 h (600 mg, Patient 024, 600 mg) was 780 µM and the concentration at 696 h (600 mg, Patient 024, 600 mg) was 811 µM. For the same molecule, the concentration at 840 h (600 mg, Patient 024, 600 mg) was 814 µM, the concentration at 842 h (600 mg, Patient 024, 600 mg) was 898 µM and the concentration at 843 h (600 mg, Patient 024, 600 mg) was 904 µM. The concentration at 844 h (600 mg, Patient 024, 600 mg) was 908 µM, the concentration at 864 h (600 mg, Patient 024, 600 mg) was 966 µM and the concentration at 2 h (750 mg, Patient 026, 750 mg) was 95.8 µM. The concentration at 3 h (750 mg, Patient 026, 750 mg) was 125 µM, the concentration at 4 h (750 mg, Patient 026, 750 mg) was 149 µM and the concentration at 24 h (750 mg, Patient 026, 750 mg) was 200 µM. It also gave a concentration at 168 h (750 mg, Patient 026, 750 mg) of 186 µM, a concentration at 170 h (750 mg, Patient 026, 750 mg) of 270 µM and a concentration at 171 h (750 mg, Patient 026, 750 mg) of 301 µM. The concentration at 172 h (750 mg, Patient 026, 750 mg) was 339 µM, the concentration at 192 h (750 mg, Patient 026, 750 mg, 192 hr (Day 9)) was 398 µM and the concentration at 336 h (750 mg, Patient 026, 750 mg) was 352 µM. For the same molecule, the concentration at 338 h (750 mg, Patient 026, 750 mg) was 399 µM, the concentration at 339 h (750 mg, Patient 026, 750 mg) was 506 µM and the concentration at 340 h (750 mg, Patient 026, 750 mg) was 492 µM. It also gave a concentration at 360 h (750 mg, Patient 026, 750 mg) of 625 µM, a concentration at 504 h (750 mg, Patient 026, 750 mg) of 479 µM and a concentration at 506 h (750 mg, Patient 026, 750 mg) of 625 µM. It also gave a concentration at 507 h (750 mg, Patient 026, 750 mg) of 546 µM, a concentration at 508 h (750 mg, Patient 026, 750 mg) of 582 µM and a concentration at 528 h (750 mg, Patient 026, 750 mg) of 608 µM. For the same molecule, the concentration at 672 h (750 mg, Patient 026, 750 mg) was 594 µM, the concentration at 674 h (750 mg, Patient 026, 750 mg) was 606 µM and the concentration at 675 h (750 mg, Patient 026, 750 mg) was 655 µM. The concentration at 676 h (750 mg, Patient 026, 750 mg) was 698 µM, the concentration at 696 h (750 mg, Patient 026, 750 mg) was 732 µM and the concentration at 840 h (750 mg, Patient 026, 750 mg) was 728 µM. For the same molecule, the concentration at 842 h (750 mg, Patient 026, 750 mg) was 824 µM, the concentration at 843 h (750 mg, Patient 026, 750 mg) was 776 µM and the concentration at 844 h (750 mg, Patient 026, 750 mg) was 822 µM. The concentration at 864 h (750 mg, Patient 026, 750 mg) was 812 µM, the concentration at 2 h (750 mg, Patient 027, 750 mg) was 110 µM and the concentration at 4 h (750 mg, Patient 027, 750 mg) was 224 µM. The concentration at 24 h (750 mg, Patient 027, 750 mg) was 199 µM.

Reference: US20130029928A1 (priority 2010, published 2013)
